Measured values: patent publication US6362181B1, “Isoquinolones” (Warner-Lambert Company, priority 1996, dated 2002)
Values after ≈ are worked out from the molar mass of the structure shown. Structures can show the parent of a compound that is named as a salt. Each block holds one compound with its values, some of them ahead of it.

Experiments:
B. subtilis RB1 = test: Antibacterial assay, standard microtitration, MIC; type: cell-based; conditions: Gram positive; for MIC: Bacillus subtilis, read-out: Minimum Inhibitory Concentrations, B. subtilis RB1
Description: (§1) The compounds of the present invention were tested against an assortment of gram negative and gram positive organisms using standard microtitration techniques (Cohen, et al., Antimicrob. Agents Chemother., 1985;28:766; Heifetz, et al. Antimicrob. Agents Chemother., 1974;6:124).

E. coli B90 = test: Antibacterial assay, standard microtitration, MIC; type: cell-based; conditions: Gram negative; for MIC: Escherichia coli, read-out: Minimum Inhibitory Concentrations, E. coli B90
Description: as §1

E. coli MC4100 = test: Antibacterial assay, standard microtitration, MIC; type: cell-based; conditions: Gram negative; for MIC: Escherichia coli, read-out: Minimum Inhibitory Concentrations, E. coli MC4100
Description: as §1

E. coli To1C = test: Antibacterial assay, standard microtitration, MIC; type: cell-based; conditions: for Minimum Inhibitory Concentrations, E. coli To1C: Gram negative; for MIC: Escherichia coli, TO1C, read-out: Minimum Inhibitory Concentrations, E. coli To1C
Description: as §1

S. aureus 29213 = test: Antibacterial assay, standard microtitration, MIC; type: cell-based; conditions: Gram positive; for MIC: Staphylococcus aureus, read-out: Minimum Inhibitory Concentrations, S. aureus 29213
Description: as §1

S. pyogenes C203 = test: Antibacterial assay, standard microtitration, MIC; type: cell-based; conditions: Gram positive; for MIC: Streptococcus pyogenes, read-out: Minimum Inhibitory Concentrations, S. pyogenes C203
Description: as §1

Compound: NC1CCN(c2c(Cl)cc3c4c(cccc24)C(=O)N(O)C3=O)C1.O=C(O)C(F)(F)F (stereo not drawn) [Example 99]
Minimum Inhibitory Concentrations, B. subtilis RB1 (B. subtilis RB1): 1.0 µg/mL
Minimum Inhibitory Concentrations, E. coli B90 (E. coli B90): 1.0 µg/mL
Minimum Inhibitory Concentrations, E. coli MC4100 (E. coli MC4100): 2.0 µg/mL
Minimum Inhibitory Concentrations, E. coli To1C (E. coli To1C): 0.5 µg/mL
Minimum Inhibitory Concentrations, S. aureus 29213 (S. aureus 29213): 8.0 µg/mL
Minimum Inhibitory Concentrations, S. pyogenes C203 (S. pyogenes C203): 4.0 µg/mL

Compound: CC(=O)Nc1cc2c3c(cccc3c1N1CCCC1)C(=O)N(O)C2=O [Example 64, 5-Acetamido-2-hydroxy-6-(pyrrolidin-1yl)-benzo[de]isoquinoline-1,3-dione]
MIC (B. subtilis RB1): 64 µg/mL (≈ 189 µM)
MIC (E. coli B90): 32 µg/mL (≈ 94.3 µM)
MIC (E. coli MC4100): > 64 µg/mL
MIC (E. coli To1C): 16 µg/mL (≈ 47.1 µM)
MIC (S. aureus 29213): > 64 µg/mL
MIC (S. pyogenes C203): > 64 µg/mL

Compound: CN1CCN(c2c(Cl)cc3c4c(cccc24)C(=O)N(O)C3=O)CC1 (as salt: TFA) [Example 98]
melting point: > 250 °C

melting point: 259 to 263 °C
Compound: NC1CCN(c2c([N+](=O)[O-])cc3c4c(cccc24)C(=O)N(O)C3=O)C1 (stereo not drawn) [Example 82]

Compound: CN(C)CCN1C(=O)c2cccc3cc([N+](=O)[O-])cc(c23)C1=O [Mitonafide, mitonafide, reference compound]
MIC (B. subtilis RB1): 16 µg/mL (≈ 51.1 µM)
MIC (E. coli B90): 8 µg/mL (≈ 25.5 µM)
MIC (E. coli MC4100): 32 µg/mL (≈ 102 µM)
MIC (S. aureus 29213): 32 µg/mL (≈ 102 µM)
MIC (S. pyogenes C203): 4 µg/mL (≈ 12.8 µM)

melting point: > 250 °C
Compound: CNC(=O)Nc1cc2c3c(cccc3c1)C(=O)N(O)C2=O [Example 101]

Compound: Cc1cc2c3c(cccc3c1Br)C(=O)N(O)C2=O [Example 104, 6-Bromo-5-methyl-2-hydroxy-benzo[de]isoquinoline-1,3-dione]
MIC (B. subtilis RB1): 0.5 µg/mL (≈ 1.63 µM)
MIC (E. coli B90): 0.25 µg/mL (≈ 0.817 µM)
MIC (E. coli MC4100): > 64 µg/mL
MIC (E. coli To1C): 0.25 µg/mL (≈ 0.817 µM)
MIC (S. aureus 29213): 4 µg/mL (≈ 13.1 µM)
MIC (S. pyogenes C203): > 64 µg/mL

Compound: CN(C)c1c(Br)cc2c3c(cccc13)C(=O)N(O)C2=O [Example 53, 5-Bromo-6-dimethylamino-2-hydroxy-benzo[de]isoquinoline-1,3-dione]
MIC (B. subtilis RB1): 2 µg/mL (≈ 5.97 µM)
MIC (E. coli B90): 2 µg/mL (≈ 5.97 µM)
MIC (E. coli MC4100): 64 µg/mL (≈ 191 µM)
MIC (E. coli To1C): 1 µg/mL (≈ 2.98 µM)
MIC (S. aureus 29213): 4 µg/mL (≈ 11.9 µM)
MIC (S. pyogenes C203): 32 µg/mL (≈ 95.5 µM)

Compound: O=C1c2cccc3c4c(cc(c23)C(=O)N1O)OCN(C1CC1)C4 [Example 131]
Minimum Inhibitory Concentrations, B. subtilis RB1 (B. subtilis RB1): 32 µg/mL
Minimum Inhibitory Concentrations, E. coli B90 (E. coli B90): 8.0 µg/mL
Minimum Inhibitory Concentrations, E. coli MC4100 (E. coli MC4100): 32 µg/mL
Minimum Inhibitory Concentrations, E. coli To1C (E. coli To1C): 8.0 µg/mL
Minimum Inhibitory Concentrations, S. aureus 29213 (S. aureus 29213): >64 µg/mL
Minimum Inhibitory Concentrations, S. pyogenes C203 (S. pyogenes C203): >64 µg/mL

Compound: O=C1c2cccc3c(N4CCCC4)c(F)cc(c23)C(=O)N1O [Example 134, 5-Fluoro-2-hydroxy-6-(pyrrolidin-1-yl)-benzo[de]isoquinoline-1,3-dione]
MIC (B. subtilis RB1): 1 µg/mL (≈ 3.33 µM)
MIC (E. coli B90): 0.5 µg/mL (≈ 1.67 µM)
MIC (E. coli MC4100): > 64 µg/mL
MIC (E. coli To1C): 0.5 µg/mL (≈ 1.67 µM)
MIC (S. aureus 29213): 1 µg/mL (≈ 3.33 µM)
MIC (S. pyogenes C203): 8 µg/mL (≈ 26.6 µM)

Compound: CC1(CN)CCN(c2c(Cl)cc3c4c(cccc24)C(=O)N(O)C3=O)C1 (stereo not drawn) (as salt: TFA) [Example 89]
melting point: 160 to 166 °C

Compound: O=C1c2cccc3c([N+](=O)[O-])c(Br)cc(c23)C(=O)N1O [Example 108, 5-Bromo-2-hydroxy-6-nitro-benzo[de]isoquinoline-1,3-dione]
MIC (B. subtilis RB1): 2 µg/mL (≈ 5.93 µM)
MIC (E. coli B90): 0.25 µg/mL (≈ 0.742 µM)
MIC (E. coli MC4100): 8 µg/mL (≈ 23.7 µM)
MIC (E. coli To1C): 0.5 µg/mL (≈ 1.48 µM)
MIC (S. aureus 29213): 4 µg/mL (≈ 11.9 µM)
MIC (S. pyogenes C203): 16 µg/mL (≈ 47.5 µM)

melting point: 228 to 229 °C
Compound: O=C1c2cccc3c(N4CCCCC4)c(Cl)cc(c23)C(=O)N1O [Example 94]

Compound: O=C1c2cccc3c(N4CCCCC4)c(Br)cc(c23)C(=O)N1O [Example 49, 5-Bromo-2-hydroxy-6-(piperidine-1-yl)-benzo[de]isoquinoline-1,3-dione]
MIC (B. subtilis RB1): 1 µg/mL (≈ 2.67 µM)
MIC (E. coli B90): 4 µg/mL (≈ 10.7 µM)
MIC (E. coli MC4100): 64 µg/mL (≈ 171 µM)
MIC (E. coli To1C): 8 µg/mL (≈ 21.3 µM)
MIC (S. aureus 29213): 2 µg/mL (≈ 5.33 µM)
MIC (S. pyogenes C203): 64 µg/mL (≈ 171 µM)

Compound: O=C1c2cccc3c(N4CCCC4)ccc(c23)C(=O)N1O [Example 18, 2-Hydroxy-6-(pyrrolidin-1-yl)-benzo[de]isoquinoline-1,3-dione]
MIC (B. subtilis RB1): 2 µg/mL (≈ 7.08 µM)
MIC (E. coli B90): 4 µg/mL (≈ 14.2 µM)
MIC (E. coli MC4100): > 64 µg/mL
MIC (E. coli To1C): 1 µg/mL (≈ 3.54 µM)
MIC (S. aureus 29213): 1 µg/mL (≈ 3.54 µM)
MIC (S. pyogenes C203): 4 µg/mL (≈ 14.2 µM)

Compound: Cc1cc2c3c(cccc3c1)C(=O)N(O)C2=O [Example 21, 2-Hydroxy-5-methyl-benzo[de]isoquinoline-1,3-dione]
MIC (B. subtilis RB1): 4 µg/mL (≈ 17.6 µM)
MIC (E. coli B90): 2 µg/mL (≈ 8.8 µM)
MIC (E. coli MC4100): 8 µg/mL (≈ 35.2 µM)
MIC (E. coli To1C): 1 µg/mL (≈ 4.4 µM)
MIC (S. aureus 29213): 16 µg/mL (≈ 70.4 µM)
MIC (S. pyogenes C203): 64 µg/mL (≈ 282 µM)

melting point: 320 to 322 °C
Compound: CN1CCN(c2c([N+](=O)[O-])cc3c4c(cccc24)C(=O)N(O)C3=O)CC1 [Example 80]

melting point: 270 to 274 °C
Compound: Nc1cc2c3c(cccc3c1[SH]1CCNCC1)C(=O)N(O)C2=O [Example 73]

Compound: CC(=O)OCCOc1cc2c3c(cccc3c1)C(=O)N(O)C2=O [Example 23, 2-Hydroxy-5-(2-acetoxy-ethoxy)-benzo[de]isoquinoline-1,3-dione]
MIC (B. subtilis RB1): 4 µg/mL (≈ 12.7 µM)
MIC (E. coli B90): 2 µg/mL (≈ 6.34 µM)
MIC (E. coli MC4100): 16 µg/mL (≈ 50.7 µM)
MIC (E. coli To1C): 1 µg/mL (≈ 3.17 µM)
MIC (S. aureus 29213): > 64 µg/mL
MIC (S. pyogenes C203): > 64 µg/mL

Compound: CC(C)NCC1CCN(c2c(Cl)cc3c4c(cccc24)C(=O)N(O)C3=O)C1.O=C(O)C(F)(F)F (stereo not drawn) [Example 86]
Minimum Inhibitory Concentrations, B. subtilis RB1 (B. subtilis RB1): 2.0 µg/mL
Minimum Inhibitory Concentrations, E. coli B90 (E. coli B90): 0.5 µg/mL
Minimum Inhibitory Concentrations, E. coli MC4100 (E. coli MC4100): 8.0 µg/mL
Minimum Inhibitory Concentrations, E. coli To1C (E. coli To1C): 0.5 µg/mL
Minimum Inhibitory Concentrations, S. aureus 29213 (S. aureus 29213): 4.0 µg/mL
Minimum Inhibitory Concentrations, S. pyogenes C203 (S. pyogenes C203): 4.0 µg/mL
